This passage reports IC50 results from patent US9096589B2, “Heteroaromatic phenylimidazole derivatives as PDE10A enzyme inhibitors” (H. Lundbeck A/S, priority 2009, dated 2015).

In the test the target is PDE10A (Homo sapiens (Human), UniProt Q9Y233). Kind of test: PDE10A inhibition assay. It is filed as biochemical. On the procedure: Active PDE10A enzyme is prepared in a number of ways for use in PDE assays (Loughney, K. et al. Gene 1999, 234, 109-117; Fujishige, K. et al. Eur J. Biochem. 1999, 266, 1118-1127 and Soderling, S. et al. Proc. Natl. Acad. Sci. 1999, 96, 7071-7076). PDE10A can be expressed as full-length proteins or as truncated proteins, as long as they express the catalytic domain. PDE10A can be prepared in different cell types, for example insect cells or E. coli. An example of a method to obtain catalytically active PDE10A is as follows: The catalytic domain of human PDE10A (amino acids 440-779 from the sequence with accession number NP 006652) is amplified from total human brain total RNA by standard RT-PCR and is cloned into the BamH1 and Xho1 sites of the pET28a vector (Novagen). Expression in coli is performed according to standard protocols. Briefly, the expression plasmids are transformed into the BL21(DE3) E. coli strain, and 50 mL cultures inoculated with the cells allowed to grow to an OD600 of 0.4-0.6 before protein expression is induced with 0.5 mM IPTG. Following induction, the cells are incubated overnight at room temperature, after which the cells are collected by centrifugation. Cells expressing PDE10A are resuspended in 12 mL (50 mM TRIS-HCl-pH8.0, 1 mM MgCl2 and protease inhibitors). The cells are lysed by sonication, and after all cells are lysed, TritonX100 is added according to Novagen protocols.
Chain of PDE10A (Q9Y233 716-1055): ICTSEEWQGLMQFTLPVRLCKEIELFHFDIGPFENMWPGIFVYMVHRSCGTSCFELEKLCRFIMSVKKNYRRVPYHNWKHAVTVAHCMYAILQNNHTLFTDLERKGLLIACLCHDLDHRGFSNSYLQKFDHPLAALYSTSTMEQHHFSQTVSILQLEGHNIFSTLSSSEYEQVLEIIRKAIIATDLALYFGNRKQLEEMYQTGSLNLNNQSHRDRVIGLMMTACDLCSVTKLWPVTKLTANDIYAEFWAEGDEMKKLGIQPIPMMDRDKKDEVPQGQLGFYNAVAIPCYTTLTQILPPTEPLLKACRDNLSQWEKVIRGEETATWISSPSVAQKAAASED
A PDE10A assay may for example, be performed as follows: The assay is performed in 60 uL samples containing a fixed amount of the relevant PDE enzyme (sufficient to convert 20-25% of the cyclic nucleotide substrate); a buffer (50 mM HEPES7.6; 10 mM MgCl2; 0.02% Tween20), 0.1 mg/ml BSA, 225 pCi of ^3H-labelled cyclic nucleotide substrate, tritium labeled cAMP to a final concentration of 5 nM and varying amounts of inhibitors. Reactions are initiated by addition of the cyclic nucleotide substrate, and reactions are allowed to proceed for one hr at room temperature before being terminated through mixing with 15 uL 8 mg/mL yttrium silicate SPA beads (Amersham). The beads are allowed to settle for one hr in the dark before the plates are counted in a Wallac 1450 Microbeta counter. The measured signal can be converted to activity relative to an uninhibited control (100%) and IC50 values can be calculated using the Xlfit extension to EXCEL.

`Cc1cc(C)n2nc(CCc3nc(-c4ccc(C)o4)cn3C)nc2n1` [5,7-Dimethyl-2-{2-[1-methyl-4-(5-methyl-furan-2-yl)-1H-imidazol-2-yl]-ethyl}-[1,2,4]triazolo[1,5-a]pyrimidine] gave an IC50 of 38 nM. This counts as double-digit nanomolar. As to `Cc1cc(C)n2cc(CCc3nc(-c4cccs4)cn3COCC[Si](C)(C)C)nc2n1` [5,7-Dimethyl-2-{2-[4-thiophen-2-yl-1-(2-trimethylsilanyl-ethoxymethyl)-1H-imidazol-2-yl]-ethyl}-imidazo[1,2-a]pyrimidine], 9.6 nM corresponded to half-maximal inhibition (IC50). In the case of `Cc1cc(C)n2cc(/C=C/c3nc(-c4cccs4)cn3COCC[Si](C)(C)C)nc2n1` [5,7-Dimethyl-2-{(E)-2-[4-thiophen-2-yl-1-(2-trimethylsilanyl-ethoxymethyl)-1H-imidazol-2-yl]-vinyl}-imidazo[1,2-a]pyrimidine] it was 81 nM; in that of `Cc1ncc(C)n2nc(CCc3nc(-c4cnccn4)cn3C)nc12` [5,8-Dimethyl-2-[2-(1-methyl-4-pyrazin-2-yl-1H-imidazol-2-yl)-ethyl]-[1,2,4]triazolo[1,5-a]pyrazine], 0.52 nM. With `Cc1ncc(C)n2nc(CCc3nc(-c4cccnc4)cn3C)nc12` [5,8-Dimethyl-2-[2-(1-methyl-4-pyridin-3-yl-1H-imidazol-2-yl)-ethyl]-[1,2,4]triazolo[1,5-a]pyrazine], the IC50 was 8.9 nM. In the case of `Cc1ccc(C)n2nc(CCc3nc(-c4cccnc4)cn3C)nc12` [5,8-Dimethyl-2-[2-(1-methyl-4-pyridin-3-yl-1H-imidazol-2-yl)-ethyl]-[1,2,4]triazolo[1,5-a]pyridine] it was 5.7 nM; in that of `Cc1ncc(C)n2nc(CCc3nc(-c4ccncc4)cn3C)nc12` [5,8-Dimethyl-2-[2-(1-methyl-4-pyridin-4-yl-1H-imidazol-2-yl)-ethyl]-[1,2,4]triazolo[1,5-a]pyrazine], 0.55 nM; in that of `Cc1ncc(C)n2nc(CCc3nc(-c4cncnc4)cn3C)nc12` [5,8-Dimethyl-2-[2-(1-methyl-4-pyrimidin-5-yl-1H-imidazol-2-yl)-ethyl]-[1,2,4]triazolo[1,5-a]pyrazine], 0.44 nM. On to `Cc1ncc(C)n2nc(CCc3nc(-c4nccs4)cn3C)nc12` [5,8-Dimethyl-2-[2-(1-methyl-4-thiazol-2-yl-1H-imidazol-2-yl)-ethyl]-[1,2,4]triazolo[1,5-a]pyrazine], for which 2.7 nM corresponded to half-maximal inhibition (IC50). To `Cc1ccc(C)n2nc(CCc3nc(-c4nccs4)cn3C)nc12` [5,8-Dimethyl-2-[2-(1-methyl-4-thiazol-2-yl-1H-imidazol-2-yl)-ethyl]-[1,2,4]triazolo[1,5-a]pyridine] belongs 2.3 nM. To `Cc1ncc(C)n2nc(CCc3nc(-c4cscn4)cn3C)nc12` [5,8-Dimethyl-2-[2-(1-methyl-4-thiazol-4-yl-1H-imidazol-2-yl)-ethyl]-[1,2,4]triazolo[1,5-a]pyrazine] belongs 1.29 nM. The molecule `Cc1ccc(C)n2nc(CCc3nc(-c4cscn4)cn3C)nc12` [5,8-Dimethyl-2-[2-(1-methyl-4-thiazol-4-yl-1H-imidazol-2-yl)-ethyl]-[1,2,4]triazolo[1,5-a]pyridine] returned an IC50 of 0.4 nM. This IC50 lies about 3.2-fold lower than the previous one. To `Cc1ncc(C)n2nc(CCc3nc(-c4cncs4)cn3C)nc12` [5,8-Dimethyl-2-[2-(1-methyl-4-thiazol-5-yl-1H-imidazol-2-yl)-ethyl]-[1,2,4]triazolo[1,5-a]pyrazine] belongs 6.9 nM. In the case of `Cc1ncc(C)n2nc(CCc3nc(-c4cccs4)cn3C)nc12` [5,8-Dimethyl-2-[2-(1-methyl-4-thiophen-2-yl-1H-imidazol-2-yl)-ethyl]-[1,2,4]triazolo[1,5-a]pyrazine], the IC50 was 0.39 nM. In turn, `Cc1ccc(C)n2nc(CCc3nc(-c4cccs4)cn3C)nc12` [5,8-Dimethyl-2-[2-(1-methyl-4-thiophen-2-yl-1H-imidazol-2-yl)-ethyl]-[1,2,4]triazolo[1,5-a]pyridine] had an IC50 of 1 nM.

With `Cc1ccc(-c2cn(C)c(CCc3nc4c(C)ncc(C)n4n3)n2)o1` [5,8-Dimethyl-2-{2-[1-methyl-4-(5-methyl-furan-2-yl)-1H-imidazol-2-yl]-ethyl}-[1,2,4]triazolo[1,5-a]pyrazine], the IC50 came out at 6.8 nM. To `Cc1ccc(-c2cn(C)c(CCc3nc4c(C)ccc(C)n4n3)n2)o1` [5,8-Dimethyl-2-{2-[1-methyl-4-(5-methyl-furan-2-yl)-1H-imidazol-2-yl]-ethyl}-[1,2,4]triazolo[1,5-a]pyridine] belongs 4.2 nM; to `Cc1cccc2nc(CCc3nc(-c4cccnc4)cn3C)nn12` [5-Methyl-2-[2-(1-methyl-4-pyridin-3-yl-1H-imidazol-2-yl)-ethyl]-[1,2,4]triazolo[1,5-a]pyridine], 71 nM; to `Cc1cccc2nc(CCc3nc(-c4cncs4)cn3C)nn12` [5-Methyl-2-[2-(1-methyl-4-thiazol-5-yl-1H-imidazol-2-yl)-ethyl]-[1,2,4]triazolo[1,5-a]pyridine], 39 nM. Take `Cc1cccc2nc(CCc3nc(-c4cccs4)cn3C)nn12` [5-Methyl-2-[2-(1-methyl-4-thiophen-2-yl-1H-imidazol-2-yl)-ethyl]-[1,2,4]triazolo[1,5-a]pyridine]: the IC50 stood at 9.2 nM. In the case of `CCCn1cc(-c2cccnc2)nc1CCc1nc2cccc(C)n2n1` [5-Methyl-2-[2-(1-propyl-4-pyridin-3-yl-1H-imidazol-2-yl)-ethyl]-[1,2,4]triazolo[1,5-a]pyridine] it was 49 nM; in that of `Cc1cccc2nc(CCc3nc(-c4cccnc4)c[nH]3)nn12` [5-Methyl-2-[2-(4-pyridin-3-yl-1H-imidazol-2-yl)-ethyl]-[1,2,4]triazolo[1,5-a]pyridine], 9.6 nM; in that of `Cc1cccc2nc(CCc3nc(-c4cccs4)c[nH]3)nn12` [5-Methyl-2-[2-(4-thiophen-2-yl-1H-imidazol-2-yl)-ethyl]-[1,2,4]triazolo[1,5-a]pyridine], 0.54 nM.

In turn, `Cc1cccc2nc(CCc3nc(-c4ccsc4)c[nH]3)nn12` [5-Methyl-2-[2-(4-thiophen-3-yl-1H-imidazol-2-yl)-ethyl]-[1,2,4]triazolo[1,5-a]pyridine] showed an IC50 of 5.7 nM. `Cc1cscc1-c1c[nH]c(CCc2nc3cccc(C)n3n2)n1` [5-Methyl-2-{2-[4-(4-methyl-thiophen-3-yl)-1H-imidazol-2-yl]-ethyl}-[1,2,4]triazolo[1,5-a]pyridine] gave an IC50 of 45 nM. Against the preceding molecule, the IC50 is about 7.9-fold higher.

Turning to `Cc1ccc(-c2c[nH]c(CCc3nc4cccc(C)n4n3)n2)o1` [5-Methyl-2-{2-[4-(5-methyl-furan-2-yl)-1H-imidazol-2-yl]-ethyl}-[1,2,4]triazolo[1,5-a]pyridine], the IC50 is 34 nM. Molecule `Cc1ccc(-c2cn(COCC[Si](C)(C)C)c(/C=C/c3nc4cccc(C)n4n3)n2)s1` [5-Methyl-2-{(E)-2-[4-(5-methyl-thiophen-2-yl)-1-(2-trimethylsilanyl-ethoxymethyl)-1H-imidazol-2-yl]-vinyl}-[1,2,4]triazolo[1,5-a]pyridine] returned an IC50 of 210 nM. This IC50 is about 6.2-fold higher than that of the molecule before. In the case of `Cn1cc(-c2cccs2)nc1CCc1nc2c(F)cccn2n1` [8-Fluoro-2-[2-(1-methyl-4-thiophen-2-yl-1H-imidazol-2-yl)-ethyl]-[1,2,4]triazolo[1,5-a]pyridine] it was 47 nM. Molecule `Cn1cc(-c2cncs2)nc1/C=C/c1nc2c(F)cccn2n1` [8-Fluoro-2-[(E)-2-(1-methyl-4-thiazol-5-yl-1H-imidazol-2-yl)-vinyl]-[1,2,4]triazolo[1,5-a]pyridine] gave an IC50 of 300 nM. `Cn1cc(-c2cccs2)nc1/C=C/c1nc2c(F)cccn2n1` [8-Fluoro-2-[(E)-2-(1-methyl-4-thiophen-2-yl-1H-imidazol-2-yl)-vinyl]-[1,2,4]triazolo[1,5-a]pyridine]: half-maximal inhibition (IC50) was put at 100 nM.

Molecule `Cc1ccc(-c2cn(C)c(CCc3nc4c(F)cccn4n3)n2)o1` [8-Fluoro-2-{2-[1-methyl-4-(5-methyl-furan-2-yl)-1H-imidazol-2-yl]-ethyl}-[1,2,4]triazolo[1,5-a]pyridine] came in with a half-maximal inhibitory concentration (IC50) of 94 nM. In the case of `Cc1ccc(-c2cn(C)c(/C=C/c3nc4c(F)cccn4n3)n2)o1` [8-Fluoro-2-{(E)-2-[1-methyl-4-(5-methyl-furan-2-yl)-1H-imidazol-2-yl]-vinyl}-[1,2,4]triazolo[1,5-a]pyridine] it was 520 nM; in that of `COc1cccn2nc(CCc3nc(-c4cncs4)cn3C)nc12` [8-Methoxy-2-[2-(1-methyl-4-thiazol-5-yl-1H-imidazol-2-yl)-ethyl]-[1,2,4]triazolo[1,5-a]pyridine], 36 nM.

By IC50 is commonly meant the concentration at which inhibition is half-maximal. The low end stands for higher potency, the high end for lower potency.
